Test results as given in US8232401B2 (Japan Tobacco Inc., priority 2002, dated 2012).

Biological target: T1, HIV integrase (Human immunodeficiency virus type 1 group M subtype B, UniProt P12497, F1332H)
T1 construct: HIV integrase full length gene; made in house; host or cells: Escherichia coli BL21(DE3)
Assay: Determination of enzyme (HIV integrase) inhibitory activity (strand transfer, microtiter plate, absorbance at 450 nm)
Type: biochemical, HIV (Human Immunodeficiency Virus (type 1))
Settings: recombinant HIV integrase (F185H) expressed in E. coli; donor DNA on streptavidin plate, digoxigenin target DNA; 37° C.

Compound	IC50 [nM]
O=C(O)c1cn(CCc2ccccc2)c2ccc(Cc3cccc(Cl)c3Cl)cc2c1=O [Example 1-16, 6-(2,3-Dichlorobenzyl)-4-oxo-1-phenethyl-1,4-dihydroquinoline-3-carboxylic acid]	32
CCOc1cc2c(cc1Cc1cccc(Cl)c1F)c(=O)c(C(=O)O)cn2[C@H](CO)C1CCCCC1 [Example 4-43, (S)-6-(3-Chloro-2-fluorobenzyl)-1-(1-cyclohexyl-2-hydroxyethyl)-7-ethoxy-4-oxo-1,4-dihydroquinoline-3-carboxylic acid]	2.8
CN(C)c1cc2c(cc1Cc1cccc(Cl)c1F)c(=O)c(C(=O)O)cn2CCO [Example 3-62, 6-(3-Chloro-2-fluorobenzyl)-7-dimethylamino-1-(2-hydroxyethyl)-4-oxo-1,4-dihydroquinoline-3-carboxylic acid]	27
Nc1cc(Cc2cccc(Cl)c2F)cc2c(=O)c(C(=O)O)cn(CCO)c12 [Example 3-35, 8-Amino-6-(3-chloro-2-fluorobenzyl)-1-(2-hydroxyethyl)-4-oxo-1,4-dihydroquinoline-3-carboxylic acid]	11
O=C(O)c1cn(CCO)c2ccc(Cc3cc(F)ccc3Cl)cc2c1=O [Example 4-6, 6-(2-Chloro-5-fluorobenzyl)-1-(2-hydroxyethyl)-4-oxo-1,4-dihydroquinoline-3-carboxylic acid]	460
Cn1cc(C(=O)O)c(=O)c2cc(Cc3cccc(Cl)c3Cl)ccc21 [Example 1-36, 6-(2,3-Dichlorobenzyl)-1-methyl-4-oxo-1,4-dihydroquinoline-3-carboxylic acid]	180
CC(C)Oc1cc(Cc2cccc(Cl)c2F)cc2c(=O)c(C(=O)O)cn([C@H](CO)C(C)(C)C)c12 [Example 4-26, (S)-6-(3-Chloro-2-fluorobenzyl)-[2,2-dimethyl-1-(hydroxymethyl)propyl]-8-isopropyloxy-4-oxo-1,4-dihydroquinoline-3-carboxylic acid]	1.5
CCc1ccccc1Cc1ccc2c(c1)c(=O)c(C(=O)O)cn2CCO [Example 4-4, 6-(2-Ethylbenzyl)-1-(2-hydroxyethyl)-4-oxo-1,4-dihydroquinoline-3-carboxylic acid]	550
COCCn1cc(C(=O)O)c(=O)c2cc(Cc3cccc(Cl)c3Cl)ccc21 [Example 1-26, 6-(2,3-Dichlorobenzyl)-1-(2-methoxyethyl)-4-oxo-1,4-dihydroquinoline-3-carboxylic acid]	180
CCOc1cc(Cc2cccc(Cl)c2F)cc2c(=O)c(C(=O)O)cn([C@H](CO)C(C)(C)C)c12 [Example 4-37, (S)-6-(3-Chloro-2-fluorobenzyl)-8-ethoxy-1-[2,2-dimethyl-1-(hydroxymethyl)propyl]-4-oxo-1,4-dihydroquinoline-3-carboxylic acid]	1.9
CC(=O)Cn1cc(C(=O)O)c(=O)c2cc(Cc3cccc(Cl)c3Cl)ccc21 [Example 1-14, 6-(2,3-Dichlorobenzyl)-4-oxo-1-(2-oxopropyl)-1,4-dihydroquinoline-3-carboxylic acid]	75
COc1cc(Cc2cccc(Cl)c2F)cc2c(=O)c(C(=O)O)cn([C@H](CO)C(C)C)c12 [Example 4-46, (S)-6-(3-Chloro-2-fluorobenzyl)-1-(1-hydroxymethyl-2-methylpropyl)-8-methoxy-4-oxo-1,4-dihydroquinoline-3-carboxylic acid]	5
CSCCn1cc(C(=O)O)c(=O)c2cc(Cc3cccc(Cl)c3Cl)ccc21 [Example 1-32, 6-(2,3-Dichlorobenzyl)-1-(2-methylsulfanylethyl)-4-oxo-1,4-dihydroquinoline-3-carboxylic acid]	68
CCOc1ccccc1Cc1ccc2c(c1)c(=O)c(C(=O)O)cn2CCO [Example 4-13, 6-(2-Ethoxybenzyl)-1-(2-hydroxyethyl)-4-oxo-1,4-dihydroquinoline-3-carboxylic acid]	300
CC(C)C[C@@H](CO)n1cc(C(=O)O)c(=O)c2cc(Cc3cccc(Cl)c3F)cc(OC(C)C)c21 [Example 4-25, (S)-6-(3-Chloro-2-fluorobenzyl)-1-(1-hydroxymethyl-3-methylbutyl)-8-isopropyloxy-4-oxo-1,4-dihydroquinoline-3-carboxylic acid]	1.9
O=C(O)c1cn(CC(O)c2ccccc2)c2ccc(Cc3cccc(Cl)c3Cl)cc2c1=O (stereo not drawn) [Example 1-43, 6-(2,3-Dichlorobenzyl)-1-(2-hydroxy-2-phenylethyl)-4-oxo-1,4-dihydroquinoline-3-carboxylic acid]	24
O=C(O)c1cn(CCO)c2cc(C(F)(F)F)c(Cc3cccc(Cl)c3Cl)cc2c1=O [Example 3-22, 6-(2,3-Dichlorobenzyl)-1-(2-hydroxyethyl)-4-oxo-7-trifluoromethyl-1,4-dihydroquinoline-3-carboxylic acid]	790
O=C(O)c1cn([C@H](CO)C2CCCCC2)c2ccc(Cc3cccc(Cl)c3F)cc2c1=O [Example 4-18, (S)-6-(3-Chloro-2-fluorobenzyl)-1-(1-cyclohexyl-2-hydroxyethyl)-4-oxo-1,4-dihydroquinoline-3-carboxylic acid]	2

Compound	IC50 [nM]
O=C(O)c1cn(CCc2ccccc2)c2ccc(Cc3ccccc3Cl)cc2c1=O [Example 1-65, 6-(2-Chlorobenzyl)-4-oxo-1-phenethyl-1,4-dihydroquinoline-3-carboxylic acid]	120
Cc1ncsc1CCn1cc(C(=O)O)c(=O)c2cc(Cc3cccc(Cl)c3Cl)ccc21 [Example 1-29, 6-(2,3-Dichlorobenzyl)-1-[2-(4-methylthiazol-5-yl)ethyl]-4-oxo-1,4-dihydroquinoline-3-carboxylic acid]	240
CC(C)(C)n1cc(C(=O)O)c(=O)c2cc(Cc3cccc(Cl)c3F)ccc21 [Example 3-33, 1-tert-Butyl-6-(3-Chloro-2-fluorobenzyl)-4-oxo-1,4-dihydroquinoline-3-carboxylic acid]	8.7
CC(C)Oc1cc(Cc2cccc(Cl)c2F)cc2c(=O)c(C(=O)O)cn([C@H](CO)C(C)C)c12 [Example 4-24, (S)-6-(3-Chloro-2-fluorobenzyl)-1-(1-hydroxymethyl-2-methylpropyl)-8-isopropyloxy-4-oxo-1,4-dihydroquinoline-3-carboxylic acid]	2.5
NS(=O)(=O)Cn1cc(C(=O)O)c(=O)c2cc(Cc3c(F)cccc3Cl)ccc21 [Example 1-75, 6-(2-Chloro-6-fluorobenzyl)-1-sulfamoylmethyl-4-oxo-1,4-dihydroquinoline-3-carboxylic acid]	16
O=C(O)c1cn(C(CO)CO)c2ccc(Cc3cccc(Cl)c3F)cc2c1=O [Example 3-26, 6-(3-Chloro-2-fluorobenzyl)-1-[2-hydroxy-1-(hydroxymethyl)ethyl]-4-oxo-1,4-dihydroquinoline-3-carboxylic acid]	11
CC(C)(O)Cn1cc(C(=O)O)c(=O)c2cc(Cc3cccc(Cl)c3Cl)ccc21 [Example 1-47, 6-(2,3-Dichlorobenzyl)-1-(2-hydroxy-2-methylpropyl)-4-oxo-1,4-dihydroquinoline-3-carboxylic acid]	98
O=C(O)c1cn(CCO)c2ccc(Cc3ccccc3)cc2c1=O [Example 1-78]	590
O=C(O)c1cn(CCO)c2cc(N3CCCC3)c(Cc3cccc(Cl)c3F)cc2c1=O [Example 3-66, 6-(3-Chloro-2-fluorobenzyl)-1-(2-hydroxyethyl)-4-oxo-7-pyrrolidin-1-yl-1,4-dihydroquinoline-3-carboxylic acid]	48
O=C(O)c1cn(CCn2ccnc2)c2ccc(Cc3cccc(Cl)c3Cl)cc2c1=O [Example 1-4, 6-(2,3-Dichlorobenzyl)-1-(2-imidazol-1-ylethyl)-4-oxo-1,4-dihydroquinoline-3-carboxylic acid]	240
CC(C)Oc1cc(Cc2cccc(Cl)c2F)cc2c(=O)c(C(=O)O)cn(CCO)c12 [Example 3-59, 6-(3-Chloro-2-fluorobenzyl)-1-(2-hydroxyethyl)-8-isopropyloxy-4-oxo-1,4-dihydroquinoline-3-carboxylic acid]	8
O=C(O)c1cn(CCO)c2ccc(Cc3cccc(F)c3F)cc2c1=O [Example 1-50, 6-(2,3-Difluorobenzyl)-1-(2-hydroxyethyl)-4-oxo-1,4-dihydroquinoline-3-carboxylic acid]	110
COc1cc(Cc2cccc(Cl)c2F)cc2c(=O)c(C(=O)O)cn([C@H](CO)C3CCCCC3)c12 [Example 4-44, (S)-6-(3-Chloro-2-fluorobenzyl)-1-(1-cyclohexyl-2-hydroxyethyl)-8-methoxy-4-oxo-1,4-dihydroquinoline-3-carboxylic acid]	2.4
O=C(O)c1cn(CC(O)CO)c2ccc(Cc3cccc(Cl)c3Cl)cc2c1=O (stereo not drawn) [Example 1-74, 6-(2,3-Dichlorobenzyl)-1-(2,3-Dihydroxypropyl)-4-oxo-1,4-dihydroquinoline-3-carboxylic acid]	98
CCOc1cc2c(cc1Cc1cccc(Cl)c1Cl)c(=O)c(C(=O)O)cn2CCO [Example 3-20, 6-(2,3-Dichlorobenzyl)-7-ethoxy-1-(2-hydroxyethyl)-4-oxo-1,4-dihydroquinoline-3-carboxylic acid]	10
COc1cc(Cc2cccc(Cl)c2F)cc2c(=O)c(C(=O)O)cn([C@H](CO)C(C)(C)C)c12 [Example 4-34, (S)-6-(3-Chloro-2-fluorobenzyl)-1-[2,2-dimethyl-1-(hydroxymethyl)propyl]-8-methoxy-4-oxo-1,4-dihydroquinoline-3-carboxylic acid]	3.9
CCCOc1cc2c(cc1Cc1cccc(Cl)c1F)c(=O)c(C(=O)O)cn2CCO [Example 3-49, 6-(3-Chloro-2-fluorobenzyl)-1-(2-hydroxyethyl)-4-oxo-7-propyloxy-1,4-dihydroquinoline-3-carboxylic acid]	7.9
CC[C@@H](CO)n1cc(C(=O)O)c(=O)c2cc(Cc3cccc(Cl)c3F)ccc21 [Example 3-60, (S)-6-(3-Chloro-2-fluorobenzyl)-1-[1-(hydroxymethyl)propyl]-4-oxo-1,4-dihydroquinoline-3-carboxylic acid]	5.5
